# Data as given in patent publication US11186588B2 (AYUMI PHARMACEUTICAL CORPORATION, priority 2017, dated 2021).
# Biological target: Recombinant BRD4 (44-168) protein (Homo sapiens (Human), UniProt O60885)
# Assay: BRD4-H4KAc4 binding assay (amplified luminescence proximity homogeneous assay, AlphaScreen)
# Conditions: not given
# Description: In order to evaluate BRD4 inhibitory activity of the present compounds, BRD4-H4KAc4 binding assay was carried out by an amplified luminescence proximity homogeneous assay. The specific method is described below.
# H4KAc4 peptide (available from Toray Research Center, Inc., sequence SGRGK(Ac)GGK(Ac)GLGK(Ac)GGAK(Ac)RHR-K(Biotin)-NH2) was dissolved in 1×Assay buffer to prepare 1 mM H4KAc4 peptide stock solution.
# N-terminal His tag/C-terminal FLAG tag-fused type Recombinant BRD4 (44-168) protein (available from Active Motif, Cat No. 31380) was diluted with 1×Assay buffer to 1,250-fold to prepare 250 nM BRD4 solution.
# 1% DMSO solution (control) and 2 μL of each compound solution in each concentration were added to each well of AlphaPlate-384 (from PerkinElmer, Cat No. 6008350). Next, 2 μL of 250 nM BRD4 solution was added to each well of AlphaPlate-384. Further, 2 μL of 250 nM H4KAc4 peptide solution was added to each well of AlphaPlate-384. After addition of the 250 nM H4KAc4 peptide solution, the mixture was allowed to stand at room temperature under light shielding for 60 minutes, and 4 μL of AlphaScreen beads were added to each well of AlphaPlate-384. After addition of the AlphaScreen beads, the mixture was allowed to stand at room temperature under light shielding for 60 minutes, emission at 520-620 nm upon excitation at 680 nm was detected by EnVision multilabel counter (from PerkinElmer), and binding of BRD4 and H4KAc4 was detected. Incidentally, the evaluation of each compound was carried out in duplicate (2 well per 1 compound).
# The BRD4 inhibition rate (%) was calculated by the following equation using Microsoft EXCEL 2010. BRD4 inhibition rate (%)=100−{(luminescence intensity average value of each compound added well)−(average value of luminescence intensity of blank well))/(average value of luminescence intensity of control well)−(average value of luminescence intensity of blank well)}×100
row,Structure (SMILES),inhibition at 10 µM [%]
1,"Cc1nnc2n1-c1sccc1C(c1ccc(Cl)cc1)=NN2 [Example 59, 4-(4-chlorophenyl)-9-methyl-6H-thieno[2,3-e][1,2,4]triazolo[3,4-c][1,2,4]triazepine]",100

# Same assay, conditions: 10 uM
Structure (SMILES),inhibition at 10 µM [%],BRD4-H4KAc4 binding % of inhibition@10 uM [%]
"CCNC(=O)c1ncccc1CN1N=C(c2ccc(Cl)cc2)c2c(sc(C)c2C)-n2c(C)nnc21 [Example 85, 3-((4-(4-chlorophenyl)-2,3,9-trimethyl-6H-thieno[2,3-e][1,2,4]triazolo[3,4-c][1,2,4]triazepin-6-yl)methyl)-N-ethylpicolinamide]",13.3,–
"Cc1sc2c(c1C)C(c1ccccc1Cl)=NN(Cc1cccnc1)c1nnc(C)n1-2 [Example 72, 4-(2-chlorophenyl)-2,3,9-trimethyl-6-(pyridin-3-ylmethyl)-6H-thieno[2,3-e][1,2,4]triazolo[3,4-c][1,2,4]triazepine]",100,–
"Cc1sc2c(c1C)C(c1ccc(Cl)cc1)=NN(CCCc1ccccc1)c1nnc(C)n1-2 [Example 20, 4-(4-chlorophenyl)-2,3,9-trimethyl-6-(3-phenylpropyl)-6H-thieno[2,3-e][1,2,4]triazolo[3,4-c][1,2,4]triazepine]",82.2,–
"COc1ccc(CN2N=C(c3ccc(Cl)cc3)c3cccnc3-n3c(C)nnc32)cc1 [Example 67, 5-(4-chlorophenyl)-7-(4-methoxybenzyl)-10-methyl-7H-pyrido[2,3-e][1,2,4]triazolo[3,4-c][1,2,4]triazepine]",100,–
"Cc1sc2c(c1C)C(c1ccccc1)=NN(Cc1cccnc1)c1nnc(C)n1-2 [Example 30, 2,3,9-trimethyl-4-phenyl-6-(pyridin-3-ylmethyl)-6H-thieno[2,3-e]-[1,2,4]triazolo[3,4-c][1,2,4]triazepine]",101,–
"COc1cccnc1CN1N=C(c2ccc(Cl)cc2)c2c(sc(C)c2C)-n2c(C)nnc21 [Example 54, 4-(4-chlorophenyl)-6-((3-methoxypyridin-2-yl)methyl)-2,3,9-trimethyl-6H-thieno[2,3-e][1,2,4]triazolo[3,4-c][1,2,4]triazepine]",99.9,–
"Cc1sc2c(c1C)C(c1ccc(Cl)cc1)=NN(Cc1cccnc1C(=O)O)c1nnc(C)n1-2 [Example 84, 3-((4-(4-chlorophenyl)-2,3,9-trimethyl-6H-thieno[2,3-e][1,2,4]triazolo[3,4-c][1,2,4]triazepin-6-yl)methyl)picolinic acid]",100,–
"COc1ccc(CN2N=C(c3ccc(Cl)cc3)c3c(C)csc3-n3c(C)nnc32)cc1 [Example 66, 4-(4-chlorophenyl)-6-(4-methoxybenzyl)-3,9-dimethyl-6H-thieno[2,3-e][1,2,4]triazolo[3,4-c][1,2,4]triazepine]",100,–
"COc1ccc(CN2N=C(c3ccc(Cl)cc3)c3c(sc(C)c3C)-n3c(CO)nnc32)cc1 [Example 68, (4-(4-chlorophenyl)-6-(4-methoxybenzyl)-2,3-dimethyl-6H-thieno[2,3-e][1,2,4]triazolo[3,4-c][1,2,4]triazepin-9-yl)methanol]",19.2,–
"COc1ccc(CN2N=C(c3ccc(Cl)cc3)c3c(sc(C)c3C)-n3c2nnc3C(F)(F)F)cc1 [Example 69, 4-(4-chlorophenyl)-6-(4-methoxybenzyl)-2,3-dimethyl-9-(trifluoromethyl)-6H-thieno[2,3-e][1,2,4]triazolo[3,4-c][1,2,4]triazepine]",52,–
"Cc1sc2c(c1C)C(c1ccc(Cl)cc1)=NN(Cc1ccccc1C(F)(F)F)c1nnc(C)n1-2 [Example 17, 4-(4-chlorophenyl)-2,3,9-trimethyl-6-(2-(trifluoromethyl)benzyl)-6H-thieno[2,3-e][1,2,4]triazolo[3,4-c][1,2,4]triazepine]",69.7,–
"Cc1sc2c(c1C)C(c1ccc(Cl)cc1)=NN(Cc1ccc(Cl)nc1)c1nnc(C)n1-2 [Example 37, 4-(4-chlorophenyl)-6-((6-chloropyridin-3-yl)methyl)-2,3,9-trimethyl-6H-thieno[2,3-e][1,2,4]triazolo[3,4-c][1,2,4]triazepine]",100,–
"Cc1sc2c(c1C)C(c1ccc(Cl)cc1)=NN(C(=O)Nc1ccccc1)c1nnc(C)n1-2 [Example 91, 4-(4-chlorophenyl)-2,3,9-trimethyl-N-phenyl-6H-thieno[2,3-e][1,2,4]triazolo[3,4-c][1,2,4]triazepine-6-carboxamide]",–,22.4
"Cc1sc2c(c1C)C(c1ccc(Cl)cc1)=NN(C(=O)Nc1ccccc1)c1nnc(C)n1-2 [Example 15, 4-(4-Chlorophenyl)-2,3,9-trimethyl-N-phenyl-6H-thieno[2,3-e][1,2,4]triazolo[3,4-c][1,2,4]triazepine-6-carboxamide]",22.3,–
"Cc1nnc2n1-c1sccc1C(c1ccc(Cl)cc1)=NN2Cc1ccccn1 [Example 62, 4-(4-chlorophenyl)-9-methyl-6-(pyridin-2-ylmethyl)-6H-thieno[2,3-e][1,2,4]triazolo[3,4-c][1,2,4]triazepine]",100,–
"Cc1sc2c(c1C)C(c1ccc(Cl)cc1)=NNc1nnc(C)n1-2 [Example 1, 4-(4-chlorophenyl)-2,3,9-trimethyl-6H-thieno[2,3-e][1,2,4]triazolo[3,4-c][1,2,4]triazepine]",99.9,–
"COc1ccc(CN2N=C(c3ccccc3)c3c(sc(C)c3C)-n3c(C)nnc32)cc1 [Example 28, 6-(4-methoxybenzyl)-2,3,9-trimethyl-4-phenyl-6H-thieno[2,3-e][1,2,4]triazolo[3,4-c][1,2,4]triazepine]",101,–
"Cc1sc2c(c1C)C(c1ccccc1)=NN(Cc1ccncc1)c1nnc(C)n1-2 [Example 32, 2,3,9-trimethyl-4-phenyl-6-(pyridin-4-ylmethyl)-6H-thieno[2,3-e][1,2,4]triazolo[3,4-c][1,2,4]triazepine]",100,–
"Cc1sc2c(c1C)C(c1ccc(Cl)cc1)=NN(C(=O)NCc1ccccc1)c1nnc(C)n1-2 [Example 35, N-benzyl-4-(4-chlorophenyl)-2,3,9-trimethyl-6H-thieno[2,3-e][1,2,4]triazolo[3,4-c][1,2,4]triazepine-6-carboxamide]",6.6,–
"COc1ccc(C2=NN(Cc3cccnc3)c3nnc(C)n3-c3sc(C)c(C)c32)cc1 [Example 76, 4-(4-methoxyphenyl)-2,3,9-trimethyl-6-(pyridin-3-ylmethyl)-6H-thieno[2,3-e][1,2,4]triazolo[3,4-c][1,2,4]triazepine]",100,–
"Cc1sc2c(c1C)C(c1ccc(Cl)cc1)=NN(Cc1cccnc1)c1nnc(C)n1-2 [Example 4, 4-(4-chlorophenyl)-2,3,9-trimethyl-6-(pyridin-3-ylmethyl)-6H-thieno[2,3-e][1,2,4]triazolo[3,4-c][1,2,4]triazepine]",100,–
"COc1ccc(CN2N=C(c3ccc(Cl)cc3)c3c(sc(C)c3C)-n3c(C)nnc32)cc1 [Example 2, 4-(4-chlorophenyl)-6-(4-methoxybenzyl)-2,3,9-trimethyl-6H-thieno[2,3-e][1,2,4]triazolo[3,4-c][1,2,4]triazepine]",100,–
